Laboratory results from patent publication US7718626B2, “ErbB3 binding protein compositions and methods of use” (University of Maryland, Baltimore, priority 2005, dated 2010).

How the values were obtained:
Androgen Receptor (AR) = Androgen Receptor (AR) (Homo sapiens, UniProt P10275, T878A)
Experimental: Luciferase Reporter Assays: Vector control or ebp1-transfected LNCaP (5×10^4) cells were plated in twelve-well plates in complete media. When cells reached 50-60% confluence, they were transfected with 0.5 μg of MMTV-luc using the Fugene-6 reagent (Roche). Cells were also transfected with the RL-TK vector as an internal control. […] Luciferase activity was determined as previously described using a Dual-Luciferase kit (Promega, Madison, Wis.). The activities of renilla luciferase were used to normalize any variations in transfection efficiency. The promoter activities of each plasmid construct were calculated as the firefly-renilla luciferase activity ratios. All transfection experiments were carried out in triplicate wells and repeated three times.

LNCaP cells = test: Growth in steroid-reduced medium with DHT and/or bicalutamide; assay type: cell-based, human; conditions: 10^−9 M DHT
Experimental: Cell Growth Assays: To measure growth in complete media, cells (2×10^4) were seeded in triplicate in individual wells of 12-well tissue culture plates in RPMI-1640 with 10% FBS and cultured for the indicated number of days. Cells were trypsinized, stained with Trypan Blue (0.4%), and counted in a hemacytometer. […] Colonies were counted after 10 days of incubation. For studies assessing the effect of dihydrotestosterone (DHT) on cell growth, cells (2×10^4) were plated in 12-well plates in complete media. After a 24-hour attachment period, the medium was replaced with steroid-free medium [phenol red-free RPMI 1640 and 5% charcoal-stripped FBS (Sigma)] for 48 hours. The final concentration of testosterone in the steroid-reduced media was less than 5 pM. After 48 hours of steroid depletion, cells were re-fed with fresh steroid-reduced medium with or without the indicated concentrations of DHT and/or bicalutamide (10 μM), and total cell numbers were assessed 7 days later.

Chain of Androgen Receptor (AR) (P10275 whole entry T878A): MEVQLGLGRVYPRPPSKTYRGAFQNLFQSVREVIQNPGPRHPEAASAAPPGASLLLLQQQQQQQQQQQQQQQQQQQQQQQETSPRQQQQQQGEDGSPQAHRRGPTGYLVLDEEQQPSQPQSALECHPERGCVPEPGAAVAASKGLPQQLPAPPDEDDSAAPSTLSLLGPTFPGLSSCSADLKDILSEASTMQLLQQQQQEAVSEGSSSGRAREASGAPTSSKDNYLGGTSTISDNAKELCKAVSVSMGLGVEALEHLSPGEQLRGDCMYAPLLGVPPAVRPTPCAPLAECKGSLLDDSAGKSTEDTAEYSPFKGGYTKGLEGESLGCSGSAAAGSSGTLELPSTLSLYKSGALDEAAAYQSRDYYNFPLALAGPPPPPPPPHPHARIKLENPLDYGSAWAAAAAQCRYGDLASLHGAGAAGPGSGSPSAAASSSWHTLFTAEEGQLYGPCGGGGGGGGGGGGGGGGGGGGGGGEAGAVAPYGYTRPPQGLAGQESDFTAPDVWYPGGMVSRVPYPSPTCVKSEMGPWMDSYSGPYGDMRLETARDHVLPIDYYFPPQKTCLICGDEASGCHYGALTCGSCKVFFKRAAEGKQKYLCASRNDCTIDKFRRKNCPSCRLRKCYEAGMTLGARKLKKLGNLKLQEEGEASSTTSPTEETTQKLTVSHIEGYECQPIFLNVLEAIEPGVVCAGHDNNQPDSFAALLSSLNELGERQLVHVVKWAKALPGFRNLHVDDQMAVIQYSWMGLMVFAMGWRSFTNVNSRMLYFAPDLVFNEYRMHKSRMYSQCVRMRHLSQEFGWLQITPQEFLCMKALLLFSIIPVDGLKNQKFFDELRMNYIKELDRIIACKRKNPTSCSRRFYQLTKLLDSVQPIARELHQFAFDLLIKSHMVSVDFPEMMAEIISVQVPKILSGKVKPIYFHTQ

| Compound | activation of luciferase activity (MMTV-luc) (Androgen Receptor (AR); LNCaP vector controls, R1881 10^−8 M) | AR activation (MMTV-luc) (Androgen Receptor (AR); ebp1 transfectants) | stimulation of growth as compared to no DHT (LNCaP cells; Ebp1 transfectants) | stimulation of growth as compared to no DHT (LNCaP cells; LNCaP vector controls, maximal) |
| --- | --- | --- | --- | --- |
| C[C@]1(O)CC[C@H]2[C@@H]3CCC4=CC(=O)CCC4=C3C=C[C@@]21C [R1881] | 20 fold | neither R1881 nor cyproterone acetate nor the combination thereof stimulated AR activation |  |  |
| C[C@]12CCC(=O)C[C@@H]1CC[C@@H]1[C@@H]2CC[C@]2(C)[C@@H](O)CC[C@@H]12 [DHT, dihydrotestosterone] |  |  | 35% | 250% |
